{"source": "ChEMBL document CHEMBL5696439", "about": "(Cancer Res, 2010)", "key": {"MDA-MB-361 [1]": {"test_system": "MDA-MB-361", "experiment": "Antitumor activity against human MDA-MB-361 cells xenografted in female nude mouse model assessed as reduction in P-AKT at T308 level at 50 mg/kg, iv administered once a week and measured at least 8 hrs by immunoblot analysis", "assay_type": "functional, organism-based"}, "[2]": {"biological_target": "Ribosomal protein S6 kinase alpha-4 (Homo sapiens) (UniProt O75676)", "experiment": "Inhibition of recombinant human full length GST-tagged RPS6KA4 expressed in insect cells at 2 uM using Ser/Thr 01 as substrate measured after 1 hr by Z'-LYTE assay relative to control", "conditions": "Insect cell"}, "MDA-MB-361 [3]": {"test_system": "MDA-MB-361", "experiment": "Induction of apoptosis in human MDA-MB-361 cells assessed as induction in cell death at 1 micromol/L incubated for 48 hrs by FACS analysis relative to control", "assay_type": "functional", "conditions": "dose 1 µmol/L, at 1 µM"}, "[4]": {"biological_target": "Casein kinase I isoform gamma-3 (Homo sapiens) (UniProt Q9Y6M4)", "experiment": "Inhibition of recombinant human full-length GST-tagged CSNK1G3 expressed in insect cells at 2 uM using Ser/Thr 05 as substrate measured after 1 hr by Z'-LYTE assay relative to control", "conditions": "Insect cell"}, "[5]": {"test_system": "Tyrosine-protein kinase ABL1 (Homo sapiens), P00519 [Y253F]", "experiment": "Inhibition of recombinant human full-length His-tagged ABL1 Y253F mutant expressed in insect cells at 2 uM using Tyr 02 as substrate measured after 1 hr by Z'-LYTE assay relative to control", "conditions": "Insect cell"}, "[6]": {"biological_target": "Beta-adrenergic receptor kinase 1 (Homo sapiens) (UniProt P25098)", "sequence (P25098 whole entry)": "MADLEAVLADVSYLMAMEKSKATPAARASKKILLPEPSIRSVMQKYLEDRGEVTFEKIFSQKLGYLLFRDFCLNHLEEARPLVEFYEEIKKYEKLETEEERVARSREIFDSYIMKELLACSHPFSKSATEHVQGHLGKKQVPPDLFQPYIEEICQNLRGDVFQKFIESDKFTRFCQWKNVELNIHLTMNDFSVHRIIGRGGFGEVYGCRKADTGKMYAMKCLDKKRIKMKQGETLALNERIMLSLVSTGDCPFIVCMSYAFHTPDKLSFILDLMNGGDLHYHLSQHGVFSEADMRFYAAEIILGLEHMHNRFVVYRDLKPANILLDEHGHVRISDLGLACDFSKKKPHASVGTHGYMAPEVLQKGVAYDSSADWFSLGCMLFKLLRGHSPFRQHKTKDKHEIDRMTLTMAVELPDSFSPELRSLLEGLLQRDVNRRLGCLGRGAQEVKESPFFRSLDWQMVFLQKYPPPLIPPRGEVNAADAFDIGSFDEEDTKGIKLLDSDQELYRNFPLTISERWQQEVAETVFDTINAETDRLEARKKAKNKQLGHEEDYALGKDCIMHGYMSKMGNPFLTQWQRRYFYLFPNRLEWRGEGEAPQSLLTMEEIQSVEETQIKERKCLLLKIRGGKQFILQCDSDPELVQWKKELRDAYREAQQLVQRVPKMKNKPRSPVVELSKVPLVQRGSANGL", "experiment": "Inhibition of recombinant human full-length His-tagged ADRBK1 expressed in insect cells at 2 uM using Ser/Thr 16 as substrate measured after 1 hr by Z'-LYTE assay relative to control", "conditions": "Insect cell"}, "[7]": {"biological_target": "Tyrosine-protein kinase Fyn (Homo sapiens) (UniProt P06241)", "experiment": "Inhibition of recombinant human full-length His-tagged FYN expressed in insect cells at 2 uM using Tyr 02 as substrate measured after 1 hr by Z'-LYTE assay relative to control", "conditions": "Insect cell"}, "[8]": {"biological_target": "Eukaryotic elongation factor 2 kinase (Homo sapiens) (UniProt O00418)", "experiment": "Inhibition of recombinant human full-length GST-tagged EEF2K expressed in E. coli at 2 uM using Ser/Thr 24 as substrate measured after 1 hr by Z'-LYTE assay relative to control"}, "[9]": {"biological_target": "Protein kinase C zeta type (Homo sapiens) (UniProt Q05513)", "sequence (Q05513 whole entry)": "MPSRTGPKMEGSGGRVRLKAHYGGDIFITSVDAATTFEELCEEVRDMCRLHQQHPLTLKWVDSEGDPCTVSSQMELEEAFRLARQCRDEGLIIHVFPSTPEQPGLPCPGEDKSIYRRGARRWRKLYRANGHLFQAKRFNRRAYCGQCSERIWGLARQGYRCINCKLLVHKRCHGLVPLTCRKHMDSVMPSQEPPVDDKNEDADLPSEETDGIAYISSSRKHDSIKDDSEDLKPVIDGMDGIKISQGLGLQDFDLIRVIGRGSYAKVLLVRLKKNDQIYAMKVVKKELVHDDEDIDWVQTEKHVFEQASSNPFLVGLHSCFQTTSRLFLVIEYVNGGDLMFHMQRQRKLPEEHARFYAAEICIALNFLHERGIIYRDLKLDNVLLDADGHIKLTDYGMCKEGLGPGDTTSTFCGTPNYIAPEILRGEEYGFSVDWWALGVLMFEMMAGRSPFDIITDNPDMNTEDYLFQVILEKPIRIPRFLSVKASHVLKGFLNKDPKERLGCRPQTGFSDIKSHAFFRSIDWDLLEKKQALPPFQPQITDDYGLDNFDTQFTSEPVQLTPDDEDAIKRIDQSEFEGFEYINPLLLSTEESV", "experiment": "Inhibition of recombinant human PRKCZ at 2 uM using Ser/Thr 07 as substrate measured after 1 hr by Z'-LYTE assay relative to control"}, "A549 [10]": {"test_system": "A549", "experiment": "Induction of apoptosis in human A549 cells assessed as reduction in S phase at 1 micromol/L incubated for 24 hrs by FACS analysis", "assay_type": "functional, cell-based", "conditions": "dose 1.0 µmol/L"}, "[11]": {"biological_target": "Tyrosine-protein kinase Lck (Homo sapiens) (UniProt P06239)", "sequence (P06239 2-509 limits assumed)": "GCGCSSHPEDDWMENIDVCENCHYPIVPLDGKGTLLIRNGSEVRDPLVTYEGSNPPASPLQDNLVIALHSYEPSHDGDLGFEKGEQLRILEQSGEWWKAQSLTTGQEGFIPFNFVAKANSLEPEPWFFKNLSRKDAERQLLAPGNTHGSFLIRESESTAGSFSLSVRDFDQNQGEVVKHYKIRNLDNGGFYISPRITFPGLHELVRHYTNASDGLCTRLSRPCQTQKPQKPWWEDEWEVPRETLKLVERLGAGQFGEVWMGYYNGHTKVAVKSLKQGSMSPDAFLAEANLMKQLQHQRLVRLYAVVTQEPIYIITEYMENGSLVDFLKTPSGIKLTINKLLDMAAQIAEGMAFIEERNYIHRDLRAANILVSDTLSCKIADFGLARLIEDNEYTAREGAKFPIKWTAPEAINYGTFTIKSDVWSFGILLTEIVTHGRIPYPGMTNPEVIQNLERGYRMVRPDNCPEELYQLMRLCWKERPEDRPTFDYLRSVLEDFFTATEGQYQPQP", "experiment": "Inhibition of recombinant human full-length His-tagged LCK expressed in insect cells at 2 uM using Tyr 02 as substrate measured after 1 hr by Z'-LYTE assay relative to control", "conditions": "Insect cell"}, "[12]": {"biological_target": "Tyrosine-protein kinase ITK/TSK (Homo sapiens) (UniProt Q08881)", "sequence (Q08881 whole entry)": "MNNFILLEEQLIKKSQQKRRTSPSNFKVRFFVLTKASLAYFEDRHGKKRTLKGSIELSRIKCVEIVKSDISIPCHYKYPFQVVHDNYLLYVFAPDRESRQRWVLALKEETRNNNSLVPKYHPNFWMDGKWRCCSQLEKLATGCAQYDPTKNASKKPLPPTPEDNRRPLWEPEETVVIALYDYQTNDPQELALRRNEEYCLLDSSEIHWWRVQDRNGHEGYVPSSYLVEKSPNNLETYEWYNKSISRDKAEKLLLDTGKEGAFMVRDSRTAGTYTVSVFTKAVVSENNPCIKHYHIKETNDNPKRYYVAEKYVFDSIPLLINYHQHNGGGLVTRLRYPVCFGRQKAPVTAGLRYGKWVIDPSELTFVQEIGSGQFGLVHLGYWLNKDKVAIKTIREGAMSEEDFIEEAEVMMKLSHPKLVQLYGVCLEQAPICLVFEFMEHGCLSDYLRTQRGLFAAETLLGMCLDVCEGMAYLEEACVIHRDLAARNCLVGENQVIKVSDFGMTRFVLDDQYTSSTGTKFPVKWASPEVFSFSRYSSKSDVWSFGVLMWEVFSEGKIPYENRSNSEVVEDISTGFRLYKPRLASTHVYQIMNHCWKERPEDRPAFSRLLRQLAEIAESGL", "experiment": "Inhibition of recombinant human full-length GST-tagged ITK expressed in insect cells at 2 uM using Tyr 01 as substrate measured after 1 hr by Z'-LYTE assay relative to control", "conditions": "Insect cell"}, "[13]": {"test_system": "Epidermal growth factor receptor (Homo sapiens), P00533 [L858R]", "experiment": "Inhibition of recombinant human GST-tagged EGFR L858R mutant (668-1210 residues) expressed in insect cells at 2 uM using Tyr 04 as substrate measured after 1 hr by Z'-LYTE assay relative to control", "conditions": "Insect cell"}, "MDA-MB-361 [14]": {"test_system": "MDA-MB-361", "experiment": "Antitumor activity against human MDA-MB-361 cells xenografted in female nude mouse model assessed as tumor growth delay at 5 mg/kg, po qd administered as 5 days on/2 days off regimen for 4 cycles", "assay_type": "functional, organism-based", "conditions": "time 28.0 day"}, "A549 [15]": {"test_system": "A549", "experiment": "Antitumor activity against VHL null-human A549 cells xenografted in female nude mouse model assessed as suppression in tumor growth at 25 mg/kg, po qd administered as 5 days on/2 days off regimen for 4 cycles relative to control", "assay_type": "functional", "conditions": "time 28 day"}, "[16]": {"biological_target": "Tyrosine-protein kinase Srms (Homo sapiens) (UniProt Q9H3Y6)", "experiment": "Inhibition of recombinant human full length GST-tagged SRMS expressed in insect cells at 2 uM using Tyr 01 as substrate measured after 1 hr by Z'-LYTE assay relative to control", "conditions": "Insect cell"}, "[17]": {"biological_target": "Mitogen-activated protein kinase 12 (Homo sapiens) (UniProt P53778)", "sequence (P53778 whole entry)": "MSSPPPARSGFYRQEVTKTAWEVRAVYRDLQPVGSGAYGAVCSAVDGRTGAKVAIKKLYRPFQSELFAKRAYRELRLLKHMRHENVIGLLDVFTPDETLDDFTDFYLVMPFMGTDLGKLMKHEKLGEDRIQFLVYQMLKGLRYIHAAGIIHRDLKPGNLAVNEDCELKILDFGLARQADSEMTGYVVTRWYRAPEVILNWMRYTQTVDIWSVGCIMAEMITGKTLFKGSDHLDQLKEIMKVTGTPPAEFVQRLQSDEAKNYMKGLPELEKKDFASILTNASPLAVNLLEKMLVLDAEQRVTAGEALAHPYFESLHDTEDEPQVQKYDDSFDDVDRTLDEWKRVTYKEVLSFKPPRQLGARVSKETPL", "experiment": "Inhibition of recombinant human full length His-tagged MAPK12 expressed in baculovirus expression system at 2 uM using Ser/Thr 03 as substrate measured after 1 hr by Z'-LYTE assay relative to control"}, "PI3K p110 beta/p85 alpha": {"biological_target": "PI3K p110 beta/p85 alpha (Homo sapiens, UniProt P42338)", "experiment": "Inhibition of p110beta/p85alpha (unknown origin) using PIP2 as substrate measured after 15 to 30 mins by fluorescence polarization assay", "assay_type": "protein-complex assay"}, "[18]": {"biological_target": "G protein-coupled receptor kinase 3 (Homo sapiens) (UniProt P35626)", "sequence (P35626 whole entry)": "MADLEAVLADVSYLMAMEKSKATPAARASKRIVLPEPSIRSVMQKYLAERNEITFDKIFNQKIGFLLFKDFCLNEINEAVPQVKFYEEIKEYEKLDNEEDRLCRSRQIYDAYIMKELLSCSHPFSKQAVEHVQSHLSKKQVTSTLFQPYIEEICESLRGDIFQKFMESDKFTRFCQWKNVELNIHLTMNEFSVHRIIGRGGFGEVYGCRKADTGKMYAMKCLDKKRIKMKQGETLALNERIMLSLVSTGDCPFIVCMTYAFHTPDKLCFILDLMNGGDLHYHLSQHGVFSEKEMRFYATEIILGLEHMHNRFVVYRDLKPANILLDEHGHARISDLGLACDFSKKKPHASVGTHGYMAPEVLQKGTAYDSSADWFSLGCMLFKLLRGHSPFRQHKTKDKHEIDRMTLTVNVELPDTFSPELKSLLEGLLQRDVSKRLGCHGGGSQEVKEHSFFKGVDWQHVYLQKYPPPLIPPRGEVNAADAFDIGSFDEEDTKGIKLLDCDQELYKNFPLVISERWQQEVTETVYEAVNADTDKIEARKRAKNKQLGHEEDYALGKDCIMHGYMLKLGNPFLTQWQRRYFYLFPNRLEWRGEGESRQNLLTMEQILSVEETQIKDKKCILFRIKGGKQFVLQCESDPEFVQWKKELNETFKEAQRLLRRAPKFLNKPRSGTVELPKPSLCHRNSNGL", "experiment": "Inhibition of recombinant human full-length GST-tagged ADRBK2 expressed in insect cells at 2 uM using Ser/Thr 16 as substrate measured after 1 hr by Z'-LYTE assay relative to control", "conditions": "Insect cell"}, "[19]": {"biological_target": "Protein kinase C eta type (Homo sapiens) (UniProt P24723)", "experiment": "Inhibition of recombinant human PRKCH at 2 uM using Ser/Thr 07 as substrate measured after 1 hr by Z'-LYTE assay relative to control"}, "[20]": {"test_system": "Platelet-derived growth factor receptor alpha (Homo sapiens), P16234 [T674I]", "sequence (P16234 whole entry T674I, the tested form may be a part)": "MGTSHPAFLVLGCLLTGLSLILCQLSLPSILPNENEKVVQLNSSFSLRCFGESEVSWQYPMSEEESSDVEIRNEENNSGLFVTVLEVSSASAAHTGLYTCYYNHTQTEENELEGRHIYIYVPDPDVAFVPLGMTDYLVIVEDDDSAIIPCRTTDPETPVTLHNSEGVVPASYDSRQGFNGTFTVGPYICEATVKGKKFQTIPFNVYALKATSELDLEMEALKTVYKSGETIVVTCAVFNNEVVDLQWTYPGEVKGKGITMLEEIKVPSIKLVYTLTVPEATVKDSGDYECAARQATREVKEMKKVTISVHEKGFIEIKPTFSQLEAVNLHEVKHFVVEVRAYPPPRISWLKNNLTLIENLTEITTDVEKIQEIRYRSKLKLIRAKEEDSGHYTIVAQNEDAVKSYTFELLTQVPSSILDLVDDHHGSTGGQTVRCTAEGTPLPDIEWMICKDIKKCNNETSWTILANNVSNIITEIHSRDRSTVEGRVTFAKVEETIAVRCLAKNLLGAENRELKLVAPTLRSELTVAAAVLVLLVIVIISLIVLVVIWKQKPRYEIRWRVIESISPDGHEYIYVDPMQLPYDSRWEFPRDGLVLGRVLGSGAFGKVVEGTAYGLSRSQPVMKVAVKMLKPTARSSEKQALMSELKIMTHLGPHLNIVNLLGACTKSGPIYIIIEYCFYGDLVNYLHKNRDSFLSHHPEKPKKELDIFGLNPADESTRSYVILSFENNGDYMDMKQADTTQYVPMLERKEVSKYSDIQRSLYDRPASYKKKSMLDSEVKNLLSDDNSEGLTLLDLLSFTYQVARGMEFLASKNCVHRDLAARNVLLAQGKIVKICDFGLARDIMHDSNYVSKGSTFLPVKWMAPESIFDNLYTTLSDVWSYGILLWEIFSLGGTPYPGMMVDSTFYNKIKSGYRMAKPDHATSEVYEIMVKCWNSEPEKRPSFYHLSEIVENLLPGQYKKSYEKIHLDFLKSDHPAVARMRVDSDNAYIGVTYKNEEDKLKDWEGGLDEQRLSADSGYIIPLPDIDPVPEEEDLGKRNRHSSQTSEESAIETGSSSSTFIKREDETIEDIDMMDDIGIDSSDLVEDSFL", "experiment": "Inhibition of recombinant human GST-tagged PDGFRA T674I mutant (550-1089 residues) expressed in baculovirus expression system at 2 uM using Tyr 04 as substrate measured after 1 hr by Z'-LYTE assay relative to control"}, "mTORC2 (Homo sapiens)": {"biological_target": "mTORC2 (Homo sapiens) (UniProt P42345+Q6R327+Q9BVC4+Q9BPZ7)", "conditions": "PC3MM2, dose 0.1-1 µM, time 6.0 hrs"}, "[21]": {"biological_target": "Dual specificity mitogen-activated protein kinase kinase 2 (Homo sapiens) (UniProt P36507)", "sequence (P36507 whole entry)": "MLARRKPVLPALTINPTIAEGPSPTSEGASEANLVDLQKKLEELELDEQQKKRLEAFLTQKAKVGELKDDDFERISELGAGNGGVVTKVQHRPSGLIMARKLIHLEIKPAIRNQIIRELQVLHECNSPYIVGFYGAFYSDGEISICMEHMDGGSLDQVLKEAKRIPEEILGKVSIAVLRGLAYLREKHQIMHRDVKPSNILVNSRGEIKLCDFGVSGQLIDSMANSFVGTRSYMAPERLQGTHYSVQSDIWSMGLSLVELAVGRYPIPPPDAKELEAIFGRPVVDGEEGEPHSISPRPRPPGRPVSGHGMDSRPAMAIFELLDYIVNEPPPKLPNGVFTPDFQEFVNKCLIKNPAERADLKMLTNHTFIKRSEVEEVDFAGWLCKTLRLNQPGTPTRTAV", "experiment": "Inhibition of recombinant human full length His-tagged MAP2K2 expressed in baculovirus expression system at 2 uM using Ser/Thr 03 as substrate measured after 1 hr by Z'-LYTE assay relative to control"}, "[22]": {"biological_target": "Megakaryocyte-associated tyrosine-protein kinase (Homo sapiens) (UniProt P42679)", "experiment": "Inhibition of recombinant human full length His-tagged MATK expressed in E. coli at 2 uM using Tyr 01 as substrate measured after 1 hr by Z'-LYTE assay relative to control"}, "[23]": {"test_system": "Proto-oncogene tyrosine-protein kinase receptor Ret (Homo sapiens), P07949 [Y791F]", "experiment": "Inhibition of recombinant human GST-tagged RET Y791F mutant (658-1114 residues) expressed in baculovirus expression system at 2 uM using Tyr 02 as substrate measured after 1 hr by Z'-LYTE assay relative to control"}}, "note": "Calls of active or inactive are those of the source. The calls are words filed in the database; no cut-off is given here.", "data": [{"compound": "CNC(=O)Nc1ccc(-c2nc(N3CC4CCC(C3)O4)c3cnn(C4CCC5(CC4)OCCO5)c3n2)cc1", "values": [{"measurement": "Activity", "setting": "MDA-MB-361 [1]", "result": "inactive"}, {"measurement": "inhibition", "setting": "[2]", "result": 1, "unit": "%"}, {"measurement": "Activity", "setting": "MDA-MB-361 [3]", "result": 47, "unit": "%"}, {"measurement": "inhibition", "setting": "[4]", "result": -1, "unit": "%"}, {"measurement": "inhibition", "setting": "[5]", "result": 0, "unit": "%"}, {"measurement": "inhibition", "setting": "[6]", "result": -1, "unit": "%"}, {"measurement": "inhibition", "setting": "[7]", "result": 2, "unit": "%"}, {"measurement": "inhibition", "setting": "[8]", "result": 1, "unit": "%"}, {"measurement": "inhibition", "setting": "[9]", "result": 8, "unit": "%"}, {"measurement": "Activity", "setting": "A549 [10]", "result": "Active"}, {"measurement": "inhibition", "setting": "[11]", "result": 10, "unit": "%"}, {"measurement": "inhibition", "setting": "[12]", "result": 2, "unit": "%"}, {"measurement": "inhibition", "setting": "[13]", "result": 3, "unit": "%"}, {"measurement": "Activity", "setting": "MDA-MB-361 [14]", "result": "Active"}, {"measurement": "Activity", "setting": "A549 [15]", "result": 100, "unit": "%"}, {"measurement": "inhibition", "setting": "[16]", "result": 7, "unit": "%"}, {"measurement": "inhibition", "setting": "[17]", "result": -2, "unit": "%"}, {"measurement": "IC50", "setting": "PI3K p110 beta/p85 alpha", "result": "> 10", "unit": "µM"}, {"measurement": "inhibition", "setting": "[18]", "result": -3, "unit": "%"}, {"measurement": "inhibition", "setting": "[19]", "result": 14, "unit": "%"}, {"measurement": "inhibition", "setting": "[20]", "result": 12, "unit": "%"}, {"measurement": "inhibition", "setting": "mTORC2 (Homo sapiens)", "result": "Active"}, {"measurement": "inhibition", "setting": "[21]", "result": 2, "unit": "%"}, {"measurement": "inhibition", "setting": "[22]", "result": 2, "unit": "%"}, {"measurement": "inhibition", "setting": "[23]", "result": 2, "unit": "%"}]}]}
